Marks after values point to notes of the source that are not given here.

Data on five compounds can be found in patent US20120076762A1, “INDUCED PLURIPOTENT STEM CELL GENERATION USING TWO FACTORS AND P53 INACTIVATION” (THE SALK INSTITUTE FOR BIOLOGICAL STUDIES, priority 2009, published 2012).

The subject of data set [1] is Mouse embryonic fibroblasts (MEFs). Nature of the data set: Reprogramming of mouse embryonic fibroblasts to iPS cells (Nanog-positive colonies). In kind it is cell-based. The settings on record: for Effect on reprogramming / Fold increase in reprogramming / Nanog-positive colony formation vs control: 3-F; for Direction and grade of change in reprogramming efficiency (arrows) / Reprogramming efficiency (Nanog-positive colonies / infected cells) / Fold increase in reprogramming / Nanog-positive colony formation vs control: MEFs. The text has this:
(§1) VSV-G viruses were produced in HEK293T cells. For pMX-based and pMSCV-based retroviruses, vectors were transfected using CaPO4 or lipofectamin, following the manufacturers' directions. One day after transfection, culture medium was changed to new medium. For lentivirus, pBOBI-based^34 or pLVTHM-based^37 vectors were transfected by Lipofectamine™ 2000 (Invitrogen) according to the manufacturer's protocol. Six hours after transfection, the DNA-lipofectamine-complex was removed and the medium was replaced the next day. Two days after transfection, the supernatant containing viruses was collected and filtered through a 0.45 μm filter. Mouse iPS cells were induced as previously described^38,39. Briefly, mouse embryonic fibroblasts (passage 3 to 5) were infected (day 0) with pMX-based retroviruses together with pLVTHM-based lentivirus for shRNAs or pBOBI-based lentivirus for Bcl-2. On day 2, cells were passed onto new gelatin-coated plates. Medium was changed every 2 days. On day 12 to 14, cells were fixed for immunofluorescence study. For the Nutlin3a experiments, cells were treated starting from day 4. Reprogramming of human embryonic fibroblasts (IMR90) was done as previously described^2′^3. Briefly, IMR90 fibroblasts (passage 7 to 9) were infected (day 0) with pMSCV-based retroviruses+pLVTHM-based lentiviruses for p53 shRNA. On day 4 or 5, cells were passed onto feeder MEFs. Medium was changed every day. Around 3 weeks after infection, cells were fixed for immunofluorescence studies. Reprogramming of human primary keratinocytes was carried out essentially as described^6. Cells were co-infected with retroviral supernatants containing 3 or 4 reprogramming factors and p53-DD or GFP at a 1:2 ratio. To assess the reprogramming efficiency, cells were trypsinized 3 days after retroviral infection and 10^4 cells were plated onto 6-cm tissue culture dishes on top of irradiated human foreskin fibroblasts with hES cell medium.
The number of Nanog-positive colonies was calculated after immunostaining at d12-14. The total number of Nanog-positive colonies was divided by the number of infected cells. Error numbers indicate s.d. The term “s.d.” refers in the customary sense to standard deviation. The term “s.e.” refers in the customary sense to standard error. Student's t-tests were performed for statistical analysis. p=0.007 (p53-shRNA vs mock, n=4 in each), p=0.0006 (p53−/− vs WT, n=3 in each), p=0.009 (p21-shRNA vs mock, n=4 in each), p=0.0005 (Arf-shRNA vs mock, n=3 in each), p=0.028 (Arf/Ink4a-shRNA vs mock, n=3 in each), p=0.010 (Ctl(solvent) vs Nutlin-3(10 μM), n=3 in each), p=0.045 (3SA/3SA vs WT, n=3 in each), p=0.022 (Bcl-2 vs mock, n=4 in each), and p=0.012 (c-Myc versus mock, n=4 in each).

In data set [2] the test system is human primary keratinocytes. Nature of the data set: Reprogramming of human primary keratinocytes (AP-positive hES-like colonies). It counts as cell-based. The text has this: FIG. 5: Downregulation of p53 activity increases reprogramming efficiency of human somatic cells. (FIG. 5a) Human embryonic fibroblasts were infected with retroviruses encoding Oct4/Sox2/Klf4 (3-F) or Oct4/Sox2/Klf4/c-Myc (4-F) factors in combination with lentiviruses expressing control- or p53-shRNA. Emerging colonies of iPS cells were visualized by immunostaining with anti-Nanog antibody using an ABC method. […] (FIG. 5b) Human primary keratinocytes were co-infected with 4-F and retroviruses expressing GFP or p53-DD. 5×10^4 infected cells were plated on 10-cm dishes and stained for AP activity after 2 weeks. […] Actin was used as a loading control. (FIG. 5c) The bars represent the average number of iPS-like colonies obtained from 10^4 keratinocytes reprogrammed with 3-F or 4-F and retroviruses encoding GFP or p53-DD, in the absence or presence of the p53 agonist Nutlin3a (n=3). iPS-like colonies were scored as having hES-like morphology and positive AP staining. Due to the numerous colonies generated in 4-F p53-DD keratinocytes, quantification was done using 10^4 cells. […]

For data set [3], the system named is human embryonic fibroblasts (HEFs, IMR90). Nature of the data set: Reprogramming of human embryonic fibroblasts (Nanog- or Tra1-81-positive colonies). It counts as cell-based.
Source text: as §1, with “.” for “VSV-G viruses were produced in HEK293T cells.”
The number of Nanog- or Tral-81-positive colonies was calculated after immunostaining at dl 8-27. No colonies were observed from mock +4-F or 3-F cells in all trials. The total number of colonies was divided by the number of infected cells. Error numbers indicate s.d (n=4).

The test system of another data set is Arf. Nature of the data set: Arf level after shRNA in MEFs (Western blot). The settings on record: lentiviral shRNA, day 4. In kind it is cell-based, mouse. The text has this:
FIG. 2: Modulation of p53 activity alters reprogramming efficiency. (FIG. 2a) Fold change in the number of 3-F induced Nanog-positive colonies by Arf shRNA compared to control shRNA (n=3). Protein levels of Arf, Ink4a and α-Tubulin (loading control) on day 4 after infection are shown. (FIG. 2b) Fold change in the number of 3-F induced Nanog-positive colonies by Arf/Ink4a shRNA compared to control shRNA (n=3). Protein levels of Arf, Ink4a and α-Tubulin (loading control) on day 4 after infection are shown. (FIG. 2c) MEFs isolated from wild type (+/+), Mdmx-3SA heterozygous (3SA/+) and homozygous (3SA/3SA) mice were exposed to 5Gy of gamma-irradiation for 4 hours. p21 mRNA levels were analyzed by QPCR. Results were normalized to untreated WT samples for fold induction. (FIG. 2d) 3-F induced Nanog-positive colonies in wild type (+/+) and homozygous (3SA/3SA) mice (n=3).
Cells were washed once in PBS and lysed in 2×SDS-PAGE sample buffer without 2-mercaptoethanol and glycerol. Lysates were briefly sonicated and cleared by centrifugation. The protein concentration was determined by a BCA Protein Assay Kit (Thermo Scientific). Lysates were then mixed with 2-mercaptoethanol, BPB and glycerol, and boiled. Equal amounts of proteins were subjected to SDS-PAGE. […] Quantitative PCR was performed using SYBR® GREEN PCR Master Mix (Applied Biosystems).
Background: Immunoblotting shows a protein as a band on a membrane.

In the next data set the test system is p21. Nature of the data set: p21 expression after shRNA in MEFs. The following applies: lentiviral shRNA. It counts as cell-based, mouse. The method, then: FIG. 1: Increased generation of iPS cells by blocking p53 and p21. (FIG. 1a) Mouse embryonic fibroblasts (MEFs) were infected by retroviruses encoding 3 transcription factors (Oct4/Sox2/Klf4), 2 factors (Oct4/Sox2), Klf4, c-Myc or GFP. Four days after infection, the protein levels of p53, Arf, and p21 were analyzed by Western Blotting. α-tubulin was used as a loading control. (FIG. 1b) Mouse embryonic fibroblasts (MEFs) were infected by retroviruses encoding three transcription factors (Oct4/Sox2/Klf4) in combination with mock, control shRNA (GFP) and p53 shRNA (#1 and #2). Emerging colonies of iPS cells were visualized by immunostaining with anti-Nanog antibody using an Avidin Biotin Complex (ABC) method. (FIG. 1c) The fold change in the number of Nanog-positive colonies compared to mock (n=4). For all figures in this study, error bars indicate s.d. (FIG. 1d) Effect of Nutlin 3a on the number of Nanog-positive colonies by 3 factors in combination with mock, p53, and p21 shRNA. Cells were treated by Nutlin 3a (0, 3, 10 μM) starting from day 4. […]
Cells were washed once in PBS and lysed in 2×SDS-PAGE sample buffer without 2-mercaptoethanol and glycerol. […] The protein concentration was determined by a BCA Protein Assay Kit (Thermo Scientific). […] Quantitative PCR was performed using SYBR® GREEN PCR Master Mix (Applied Biosystems).

Where [4] appears, read: 3F (Oct4/Sox2/Klf4), d12-14, error = s.d.

In the case of `COc1ccc(C2=N[C@@H](c3ccc(Cl)cc3)[C@@H](c3ccc(Cl)cc3)N2C(=O)N2CCNC(=O)C2)c(OC(C)C)c1` [Nutlin3a], the “Effect on iPS cell formation” value in data set [1] (3-F MEFs with p53 reduced by most effective shRNA, 0, 3, 10 μM from day 4) was “dose-dependent decrease”. In addition, the Effect on reprogramming result in data set [1] (p53(+/+) MEFs) was “dramatically reduced reprogramming”; in data set [1] (p53-null (−/−) MEFs), “did not have any effects”; in data set [2] (3-F or 4-F p53-DD expressing keratinocytes) it was “inability of Nutlin3a to reduce reprogramming”. Moreover, the “Direction and grade of change in reprogramming efficiency (arrows)” value (“Direction and grade of change” below) in data set [1] (3F, Nutlin-3 10 μM vs solvent) is recorded as “↓↓”. In addition, the “Reprogramming efficiency (Nanog-positive colonies / infected cells)” value in data set [1] (3F, Nutlin-3 10 μM vs solvent, treated from day 4, error = s.d.) is 0.007 + 0.008% vs 0.114 + 0.054%. Further, the “Effect on reprogramming efficiency” value in data set [2] (human keratinocytes, 3-F or 4-F) is given as “markedly reduced the reprogramming efficiency”.

With “p53shRNA: lentiviral shRNA against human p53, sequence GACTCCAGTGGTAATCTAC, SEQ ID NO: 7 (lentiviral vector)”, the “Actual number of Nanog-positive colonies” value in data set [3] (3-F, Trial 1) is recorded as 10 colonies/3 × 10^4 cells (p53shRNA); in data set [3] (3-F, Trial 2), 2 colonies/1 × 10^4 cells (p53shRNA); in data set [3] (4-F, Trial 1), 86 colonies/2 × 10^4 cells (p53shRNA); in data set [3] (4-F, Trial 2) it was 13 colonies/2 × 10^4 cells (p53shRNA); in data set [3] (4-F, Trial 3), 19 colonies/2 × 10^4 cells (p53shRNA); in data set [3] (4-F, Trial 4), 4 colonies/2 × 10^4 cells (p53shRNA). Besides, the “Reprogramming efficiency of HEFs” value was 0.027% * in data set [3] (3-F, average of 2 independent experiments) and 0.153 ± 0.188% in data set [3] (4-F, ± s.d. (n=4)).

“Arf shRNA: shRNA sequence CACCGGAATCCTGGACCAG, SEQ ID NO: 5”: in data set [1], the “Fold increase in reprogramming / Nanog-positive colony formation vs control” value is “approximately 2 fold”. Further, in data set [1] (setting [4]), the “Reprogramming efficiency (Nanog-positive colonies / infected cells)” value is given as 0.163 ± 0.013% vs 0.085 + 0.083%. In addition, in data set [1] (3F, vs control), the “Direction and grade of change” value is listed as “↑”. Also, the “Reduction of Arf levels” value in the data set on Arf is given as 2-4 fold.

For “p21 shRNA: shRNA sequence TTAGGACTCAACCGTAATA, SEQ ID NO: 4”, in data set [1], the “Fold increase in reprogramming / Nanog-positive colony formation vs control” value was “approximately 3 fold”. In addition, the “Reprogramming efficiency (Nanog-positive colonies / infected cells)” value in data set [1] (setting [4]) is 0.359 ± 0.144% vs 0.114 + 0.054%. For the same compound, in data set [1] (3F, vs control), the “Direction and grade of change” value is on record as “↑↑↑”. In the data set with p21, the “Reduction of p21 expression” value is reported as 3-4 fold.

Turning to “Arf/Ink4a shRNA: shRNA sequence AATGGCTGGATTGTTTAAA, SEQ ID NO: 6”, the “Reprogramming efficiency (Nanog-positive colonies / infected cells)” value in data set [1] (setting [4]) amounted to 0.366 ± 0.144% vs 0.114 + 0.054%. Also, the “Direction and grade of change” value in data set [1] (3F, vs control) is “↑↑”.
